Here are results for nine compounds from paper PMC7645381, “Development and application of a high-throughput screening assay for identification of small molecule inhibitors of the P. falciparum reticulocyte binding-like homologue 5 protein” (International Journal for Parasitology: Drugs and Drug …, 2020).

The subject of one assay is D10-PfPHG parasites. The experiment in a line: Schizont rupture assay. The settings on record: 50 and 100 μM, 6 h, flow cytometry. It is filed as cell-based, P. falciparum. As to the method: D10-PfPHG parasites ([Wilson et al., 2010]) were cultured in human O^+ erythrocytes in RPMI-HEPES culture medium (pH 7.4, 50 μg/mL hypoxanthine, 25 mM NaHCO3, 20 μg/mL gentamicin, 0.5% Albumax II (Thermo Fisher Scientific) according to established protocols ([Trager and Jensen, 1976]) and maintained in an atmosphere of 1% O2, 4% CO2 and 95% N2. For assessment of merozoite invasion after schizont rupture, parasites were tightly synchronised to a 4 h window of invasion using heparin ([Boyle et al., 2010]; [Wilson et al., 2015]) and then grown for a further 42 h. Drug treatments were setup at 2–3% parasitaemia and 1% haematocrit in 50 μL volumes with a 1 in 10 dilution of drug added when parasites were 44–48 h post invasion. After 6 h of drug treatment and immediately after invasion was expected to finish, the assays were treated with 5 μg/mL ethidium bromide (EtBr, Bio-Rad) for 5 min prior to flow cytometry assessment of parasitaemia using a Becton Dickinson Accuri. Gating of newly invaded rings, free merozoites and unruptured late stages was achieved as per published methods ([Wilson et al., 2013]).
To determine if the modest activity of pranlukast and analogues in the parasite viability assay was a consequence of invasion inhibition, rather than inhibition at another stage of blood stage parasite development, we performed an assay that measures the effect of compound treatment on P. falciparum D10 asexual stage transition between late schizont and ring stages ([Wilson et al., 2013]). In this assay, highly synchronised mature schizont-stage parasites were incubated with pranlukast and selected analogues at 50 and 100 μM and the transition to newly invaded ring stage parasites was quantified by flow cytometry. In parallel, the rate of schizont rupture and merozoite release was quantified to assess whether any reduction in newly invaded ring stages was due to a block affecting merozoite release or development. […] Neither DMSO (at the maximal concentration used for the drug treatments of 0.1%) or a non-invasion inhibitory mAb control caused a reduction in merozoite invasion. […] […].

For assay [1], the system named is HepG2 cells. The experiment in a line: HepG2 growth inhibition assay. It is filed as cell-based. The settings on record: Homo sapiens, 10-point dilution series, 48 h, Cell Titre-Glo. The method, then: HepG2 cells were cultured in Dulbeccos modified eagle's medium (DMEM) supplemented with 10% fetal calf serum (FCS), in a humidified incubator at 37 °C and 5% CO2. Ten-point compound titration assays were performed by treating cells (1 × 10^3) for 48 h in 384 well tissue culture treated plates (Greiner). Cytotoxicity was determined using Cell Titer Glo (Promega) and calculated as a percentage using DMSO as a positive growth control and 10 μM Bortezomib as a negative growth control. EC50 values were calculated using a 4-parameter log dose, non-linear regression analysis, with sigmoidal dose response (variable slope) curve fit using Graph Pad Prism (version 6.05). 0 and 100 constraint parameters were used for curve fitting. […]

Assay [2] deals with P. falciparum Rh5 (Rh5 – basigin interaction) (Plasmodium falciparum, UniProt Q8IFM5). The experiment in a line: biochemical. It is filed as binding.
For assay [3], the system named is P. falciparum 3D7 parasites. The experiment in a line: P. falciparum parasite viability assay (LDH). It is filed as cell-based. The settings on record: Plasmodium falciparum, 3D7, 72 h, LDH activity, 10-point dilution series, 72 h; read-out: P. falciparum 3D7 EC50. As to the method: A modified version of the lactate dehydrogenase (LDH) assay described by [Gamo et al. […] Compounds were pre-dispensed in 384-well plates, RPMI/Albumax growth media was added, and P. falciparum inoculated. Plates were incubated for 72 h and then frozen at −80 °C overnight. LDH activity was quantified with the modified cofactor 3-acetylpyridine adenine dinucleotide (APAD) (Sigma Aldrich) by measuring absorbance of the tetrazolium indicator nitro blue tetrazolium (NBT) (Sigma Aldrich) at 650 nm. Parasite conditions: […] Growth inhibition assay: […] Intermediate compound dilution plates were prepared by dispensing 5 μL from each well of the compound master plate into 11.5 μL of RPMI/Albumax growth media. Duplicate assay plates (384-well) were then prepared by dispensing 0.5 μL of compound from the intermediate dilution plates into 9.5 μL of RPMI/Albumax growth media. […] The final DMSO concentration was 0.1% (to limit toxicity to parasites). […] Evaluation of parasite growth measuring lactate dehydrogenase (LDH) activity: After 72 h of incubation, plates were frozen at −80 °C overnight and then thawed at room temperature for at least 4 h. […] Plates were shaken to ensure mixing and absorbance at 650 nm was monitored using a PerkinElmer Envision plate reader after 30 min of incubation at room temperature. Data were normalised to percent growth inhibition using positive and negative controls and analyzed using TIBCO Spotfire software.

For the next assay, the system named is P. falciparum D10. The assay can be described thus: P. falciparum D10 growth inhibition by flow cytometry. It is filed as cell-based. The settings on record: Plasmodium falciparum, D10; growth inhibition by flow cytometry, 12-point dilution series, 72 h. The method, then: Pranlukast and selected analogues were then evaluated in a P. falciparum parasite viability assay. For this assay, we followed the procedure described by [Gamo et al. (2010)], that used lactate dehydrogenase (LDH) as a readout for parasite viability. In this assay, 3D7 parasites were incubated over 72 h in the presence of increasing concentrations of compounds. […]. For a comparison, selected compounds were incubated in the presence of P. falciparum D10 parasites for 72 h (Table 1, Fig. S14) and growth inhibition measured by flow cytometry. […].

For assay [4], the system named is HepG2 cells. Details: method as in Pingaew et al., 2014. The settings on record: incubation time of 48 h, MTT assay ref Pingaew et al., 2014; read-out: HepG2 EC50 literature value; cited from earlier work.
Assay [5] is described as follows: Basigin_IC50_Counter_Alpha counterscreen. The settings on record: 11 pt titration; flag (POORFIT given as ~). From the text: Supplement mmc3.xlsx, sheet "Report" | column: Basigin_IC50_Counter_Alpha IC50
Assay [6] is described as follows: AlphaScreen TruHits counterscreen assay. The settings on record: 11 pt titration; flag (POORFIT given as ~); read-out: Basigin_IC50_Counter_TruHits IC50. The method, then: The counterscreen assay was conducted using AlphaScreen TruHits kit (PerkinElmer). Biotinylated acceptor beads and Streptavidin donor beads were both diluted in assay buffer (final concentration of 10 μg/mL). Using the Combi-multidrop, 10 μL of each bead solution (20 μg/mL prepared in assay buffer) was added to every well of the assay plate under subdued lighting. Compound addition and assay readout was performed as described above.

The mark [7] stands for this setting: 11 pt titration of the 45 hits, flag (POORFIT given as ~), two lines per compound, read-out: Basigin_IC50_Assay_Alpha IC50.

“And” between values parts separate entries of the source, which are not always exact repeats. Equal values may be shown once. Read-outs that look alike come from different tables or passages of the source. Bounds are passed on as bounds.

Sequence of P. falciparum Rh5 (Rh5 – basigin interaction) (Q8IFM5 24-526): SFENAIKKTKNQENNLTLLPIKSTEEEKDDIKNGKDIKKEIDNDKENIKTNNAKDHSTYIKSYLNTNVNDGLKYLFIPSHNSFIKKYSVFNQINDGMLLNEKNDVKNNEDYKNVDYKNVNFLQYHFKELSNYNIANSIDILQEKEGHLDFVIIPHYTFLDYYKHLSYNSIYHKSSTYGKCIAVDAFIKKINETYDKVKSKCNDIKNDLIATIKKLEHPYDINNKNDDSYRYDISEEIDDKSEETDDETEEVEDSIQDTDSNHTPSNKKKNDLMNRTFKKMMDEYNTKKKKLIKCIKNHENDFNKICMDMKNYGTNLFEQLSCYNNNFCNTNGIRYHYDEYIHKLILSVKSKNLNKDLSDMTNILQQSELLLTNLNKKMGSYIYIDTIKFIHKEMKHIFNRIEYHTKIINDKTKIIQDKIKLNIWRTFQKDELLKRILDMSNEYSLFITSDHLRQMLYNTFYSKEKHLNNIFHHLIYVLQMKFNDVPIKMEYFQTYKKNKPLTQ

Regarding `O=C(Nc1cccc2c(=O)cc(C(=O)O)oc12)c1ccc(OCCCCc2ccccc2)cc1` [Compound 18, 4-Oxo-8-(4-(4-phenylbutoxy)benzamido)-4H-chromene-2-carboxylic acid], the free merozoite numbers result in the assay on D10-PfPHG parasites is “similarly reduced numbers of free merozoites”. For the same compound, the “merozoite invasion (newly invaded early ring stages)” value in the assay on D10-PfPHG parasites is “reduction in numbers of merozoites that had invaded and formed early ring stages”. In addition, the EC50 in the assay with HepG2 cells [1] is above 50 µM; in assay [3], above 50 µM; with P. falciparum D10 it was 42 µM. Moreover, the midpoint of inhibition in assay [2], the IC50, lay at 21 µM.
As to `COc1cc([C@@H]2c3cc4c(cc3[C@@H](O[C@@H]3O[C@@H]5CO[C@@H](C)O[C@H]5[C@H](O)[C@H]3O)[C@H]3COC(=O)[C@H]23)OCO4)cc(OC)c1O` [Etoposide, reference compound], the EC50 is 15.9 µM with HepG2 cells [1] and 30.2 µM with HepG2 cells [4].
As to `CCCN1CCc2cccc3c2[C@H]1Cc1ccc(O)c(O)c1-3` [WEHI-1215034], the 50% inhibitory concentration (IC50) in assay [5] is 20 µM and 22.9 µM; in assay [6], above 25 µM; in assay [2] (setting [7]), 1.56 µM and 2.23 µM.
Turning to `CN1CCc2cc(O)cc3c2[C@H]1Cc1ccc(O)c(O)c1-3` [WEHI-1215043], the IC50 in assay [5] is above 25 µM; in assay [6], above 25 µM; in assay [2] (setting [7]) it was 4.02 µM and 4.98 µM.
For the compound `CCCN1CCc2cc(O)cc3c2[C@H]1Cc1ccc(O)c(O)c1-3` [WEHI-1215052], the IC50 in assay [5] was above 25 µM; in assay [6], above 25 µM; in assay [2] (setting [7]) it was 7.45 µM and 8.43 µM.
As for `CC(=O)N1CCN(c2ccc(OC[C@@H]3CO[C@@](Cn4ccnc4)(c4ccc(Cl)cc4Cl)O3)cc2)CC1` [WEHI-1215227], the IC50 was 13.5 µM and 12.1 µM in assay [5]; 23.2 µM and 22.1 µM in assay [6]; 15.4 µM and 13.9 µM in assay [2] (setting [7]).
On to `CN1CCc2cccc3c2[C@H]1Cc1ccc(O)c(O)c1-3` [WEHI-1216442], for which the IC50 is above 25 µM in assay [5]; above 25 µM in assay [6]; ~4.07 µM and 4.14 µM in assay [2] (setting [7]).
On to `O=C(Nc1cccc2c(=O)cc(-c3nnn[nH]3)oc12)c1ccc(OCCCCc2ccccc2)cc1` [WEHI-1216506], for which the IC50 in assay [5] is 10.4 µM and 12.5 µM; in assay [6] it was 24.8 µM and > 25 µM; in assay [2] (setting [7]) it was 5.28 µM and ~5.6 µM.
Consider `COCCCOc1ccnc(C[S+]([O-])c2nc3ccccc3[nH]2)c1C` (centres unmarked) [WEHI-1216602], for which the IC50 was above 25 µM in assay [5]; above 25 µM in assay [6]; 1.08 µM and 1.23 µM in assay [2] (setting [7]).
